Laboratory results as given in PubChem BioAssay (NCI).
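Protocol summary: plate cells (96-well), add compound at 5 concentrations, incubate 48 h, interpolate endpoints linearly. TGI denotes the concentration required for complete inhibition of growth.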

How the values were obtained:
Assay in all cases: inhibition of tumour cell growth, NCI panel, 48 h
[1] = tested on: 786-0 renal
[2] = tested on: A498 renal
[3] = tested on: A549 NSCLC
[4] = tested on: ACHN renal
[5] = tested on: CCRF-CEM leukemia
[6] = tested on: COLO 205 colon
[7] = tested on: DMS 114 small cell lung
[8] = tested on: DMS 273 small cell lung
[9] = tested on: EKVX NSCLC
[10] = tested on: HCC-2998 colon
[11] = tested on: HCT-116 colon
[12] = tested on: HCT-15 colon
[13] = tested on: HL-60(TB) leukemia
[14] = tested on: HOP-18 NSCLC
[15] = tested on: HOP-62 NSCLC
[16] = tested on: HOP-92 NSCLC
[17] = tested on: IGROV1 ovarian
[18] = tested on: K-562 leukemia
[19] = tested on: KM20L2 colon
[20] = tested on: LOX IMVI melanoma
[21] = tested on: M14 melanoma
[22] = tested on: M19-MEL melanoma
[23] = tested on: MALME-3M melanoma
[24] = tested on: MOLT-4 leukemia
[25] = tested on: NCI-H226 lung
[26] = tested on: NCI-H23 lung
[27] = tested on: NCI-H460 lung
[28] = tested on: NCI-H522 lung
[29] = tested on: OVCAR-4 ovarian
[30] = tested on: OVCAR-8 ovarian
[31] = tested on: RPMI-8226 leukemia
[32] = tested on: RXF 393 renal
[33] = tested on: RXF-631 renal
[34] = tested on: SF-268 CNS
[35] = tested on: SF-539 CNS
[36] = tested on: SK-MEL-2 melanoma
[37] = tested on: SK-MEL-28 melanoma
[38] = tested on: SK-MEL-5 melanoma
[39] = tested on: SK-OV-3 ovarian
[40] = tested on: SN12C renal
[41] = tested on: SNB-19 CNS
[42] = tested on: SNB-75 CNS
[43] = tested on: SW-620 colon
[44] = tested on: TK-10 renal
[45] = tested on: U251 CNS
[46] = tested on: UACC-62 melanoma
[47] = tested on: UO-31 renal
[48] = tested on: XF 498 CNS
[49] = tested on: CAKI-1 renal
[50] = tested on: DLD-1 colon
[51] = tested on: HT29 colon
[52] = tested on: KM12 colon
[53] = tested on: OVCAR-3 ovarian
[54] = tested on: OVCAR-5 ovarian
[55] = tested on: SF-295 CNS
[56] = tested on: SNB-78 CNS
[57] = tested on: SR leukemia
[58] = tested on: UACC-257 melanoma
[59] = tested on: LXFL 529 NSCLC

N#CNCC(COCc1ccccc1)c1ccccc1 (centres undefined)
TGI [1]: > 100 µM
TGI [2]: > 100 µM
TGI [3]: > 100 µM
TGI [4]: > 100 µM
TGI [5]: > 100 µM
TGI [6]: > 100 µM
TGI [7]: > 100 µM
TGI [8]: > 100 µM
TGI [9]: > 100 µM
TGI [10]: > 100 µM
TGI [11]: > 100 µM
TGI [12]: > 100 µM
TGI [13]: > 100 µM
TGI [14]: > 100 µM
TGI [15]: > 100 µM
TGI [16]: > 100 µM
TGI [17]: > 100 µM
TGI [18]: > 100 µM
TGI [19]: > 100 µM
TGI [20]: > 100 µM
TGI [21]: > 100 µM
TGI [22]: > 100 µM
TGI [23]: > 100 µM
TGI [24]: > 100 µM
TGI [25]: > 100 µM
TGI [26]: > 100 µM
TGI [27]: > 100 µM
TGI [28]: > 100 µM
TGI [29]: > 100 µM
TGI [30]: > 100 µM
TGI [31]: > 100 µM
TGI [32]: > 100 µM
TGI [33]: > 100 µM
TGI [34]: > 100 µM
TGI [35]: > 100 µM
TGI [36]: > 100 µM
TGI [37]: > 100 µM
TGI [38]: > 100 µM
TGI [39]: > 100 µM
TGI [40]: > 100 µM
TGI [41]: > 100 µM
TGI [42]: > 100 µM
TGI [43]: > 100 µM
TGI [44]: > 100 µM
TGI [45]: > 100 µM
TGI [46]: > 100 µM
TGI [47]: > 100 µM
TGI [48]: > 100 µM

O=C(CN1CCN(c2cccc(Cl)c2)CC1)N1CCc2c([nH]c3ccccc23)C1c1cccnc1 (centres undefined)
TGI [1]: 44.3 µM
TGI [2]: 67.9 µM
TGI [3]: > 100 µM
TGI [4]: > 100 µM
TGI [49]: 54.7 µM
TGI [5]: 17.8 µM
TGI [50]: > 100 µM
TGI [7]: 39.4 µM
TGI [8]: 84.5 µM
TGI [9]: 94.1 µM
TGI [10]: 21.6 µM
TGI [11]: 17 µM
TGI [12]: > 100 µM
TGI [14]: 97.8 µM
TGI [15]: 63.9 µM
TGI [16]: 42 µM
TGI [51]: 15.9 µM
TGI [17]: > 100 µM
TGI [18]: 17.8 µM
TGI [52]: 20.2 µM
TGI [19]: 11.7 µM
TGI [21]: 19.4 µM
TGI [22]: 68.6 µM
TGI [24]: 6.94 µM
TGI [26]: 50.3 µM
TGI [27]: 33.1 µM
TGI [28]: 48.6 µM
TGI [53]: 42.2 µM
TGI [29]: 75.7 µM
TGI [54]: 45.2 µM
TGI [30]: > 100 µM
TGI [31]: 5.26 µM
TGI [32]: 14.8 µM
TGI [33]: 40.4 µM
TGI [34]: > 100 µM
TGI [55]: 50.8 µM
TGI [35]: 42.3 µM
TGI [37]: > 100 µM
TGI [38]: 32.6 µM
TGI [39]: > 100 µM
TGI [40]: > 100 µM
TGI [41]: > 100 µM
TGI [42]: 26.6 µM
TGI [56]: > 100 µM
TGI [57]: 7.19 µM
TGI [43]: 52 µM
TGI [44]: > 100 µM
TGI [45]: 48.8 µM
TGI [58]: 35.4 µM
TGI [46]: 39.3 µM
TGI [47]: 57.7 µM
TGI [48]: 35.9 µM

CN1CCCC2[C@@H]3CCC4=C(O)C(=O)CC[C@]4(C)C3CC[C@@]21C (some centres undefined)
TGI [1]: > 100 µM
TGI [2]: > 100 µM
TGI [3]: > 100 µM
TGI [4]: > 100 µM
TGI [49]: > 100 µM
TGI [5]: > 100 µM
TGI [6]: > 100 µM
TGI [7]: > 100 µM
TGI [8]: > 100 µM
TGI [9]: > 100 µM
TGI [11]: > 100 µM
TGI [12]: > 100 µM
TGI [13]: > 100 µM
TGI [14]: > 100 µM
TGI [15]: > 100 µM
TGI [16]: > 100 µM
TGI [51]: > 100 µM
TGI [17]: > 100 µM
TGI [18]: > 100 µM
TGI [52]: > 100 µM
TGI [19]: > 100 µM
TGI [20]: > 100 µM
TGI [59]: > 100 µM
TGI [21]: > 100 µM
TGI [23]: > 100 µM
TGI [24]: > 100 µM
TGI [25]: > 100 µM
TGI [26]: > 100 µM
TGI [27]: > 100 µM
TGI [28]: > 100 µM
TGI [53]: > 100 µM
TGI [29]: > 100 µM
TGI [54]: > 100 µM
TGI [30]: > 100 µM
TGI [31]: > 100 µM
TGI [32]: > 100 µM
TGI [33]: > 100 µM
TGI [34]: > 100 µM
TGI [55]: > 100 µM
TGI [35]: > 100 µM
TGI [36]: > 100 µM
TGI [37]: > 100 µM
TGI [38]: > 100 µM
TGI [39]: > 100 µM
TGI [40]: > 100 µM
TGI [41]: > 100 µM
TGI [42]: > 100 µM
TGI [43]: > 100 µM
TGI [44]: > 100 µM
TGI [45]: > 100 µM
TGI [58]: > 100 µM
TGI [46]: > 100 µM
TGI [47]: > 100 µM
TGI [48]: > 100 µM
